# Columns and labels:
# CHOP mRNA = test: qRT-PCR of CHOP mRNA in INS-1 cells; assay type: cell-based, rat
# Experimental: (A, B) INS-1 cells were treated with or without Tm (0.1 μg/mL) in the presence of 13d or DMSO for 8 h. ATF4 (A) and CHOP (B) mRNA levels were analyzed by qRT-PCR. Relative mRNA levels were normalized against the housekeeping gene Cyclophilin A using the comparative CT method. The results were expressed as the fold-increase over mRNA levels in untreated control cells and are the means of 3 replicate wells and representative of 3 independent experiments. ** P<0.01 compared with Tm treatment alone. Bar indicates SD. (C-E) INS-1 cells were treated with or without Tm (0.1 μg/mL) in the presence of 13d or DMSO for 8 hATF4 and CHOP protein levels were determined by Western blotting (C). α-Tubulin was used as an internal control. Quantification of ATF4 (D) and CHOP (E) protein levels was analyzed by ImageJ program, which was normalized by α-Tubulin protein level. The data shown are representative of 3 independent experiments.
# Having established that compound 13d restores ER stress-impaired β-cell survival and function, we next investigated the mechanism of action by which 13d protects β-cells against ER stress. Chronic or severe ER stress activates all three branches of the UPR, PERK, IRE1α, and ATF6, leading to eventual cell death. First, we determined the effect of 13d on the activation of the PERK pathway in β-cells under ER stress. PERK activation phosphorylates eukaryotic translation initiator factor 2α (eIF2α), which in turn allows for the up-regulation of activating transcription factor 4 (ATF4) and of the pro-apoptotic gene C/EBP-homologous protein (CHOP). Thus, we used ATF4 and CHOP expression levels as markers of PERK pathway activation. […]
# INS-1 cells were seeded at 4×10^5 cells/well in 6-well plates and treated with compounds for the indicated times. […] Relative mRNA levels were normalized against the housekeeping gene Cyclophilin A and were determined by ΔΔCt calculated from the difference in ΔCt values between the target gene and Cyclophilin A with and without treatment, based on comparative CT (cycle threshold) method. […]
# [1] = test system: STZ-induced diabetic mouse model; test: Streptozotocin (STZ)-induced diabetic mouse model; assay type: in vivo, C57BL/6 mice
# Experimental: (A) Fasting blood glucose levels were measured in STZ-injected mice treated with vehicle control (n=6) or 13d (n=7). C57BL/6J mice were injected intraperitoneally once daily for 5 days with STZ (50 mg/kg body weight) and with either vehicle (n=6 mice) or 13d (5 mg/kg body weight; n=7 mice). Injections of vehicle or 13d alone were then continued for 2 more weeks. (B) Glucose tolerance test. Blood glucose levels measured at indicated time points after intraperitoneal injection of glucose (2 g/kg body weight). (C) Pancreases were sectioned and slides were stained with anti-insulin antibody (green, β-cell marker), anti-glucagon antibody (red, α-cell marker), and DAPI (blue). Slides were imaged with an Olympus FV1000 confocal microscope. Representative images are shown in (C). (D) Quantification of total islet area per section and β-cell number per islet. Total area of all islets per section calculated for a total of six sections using insulin-positive cells to demarcate islets. Data are the means±SEM of six sections from three mice. *p<0.05 **p<0.01, and ***p<0.001 by Student's t-test.
# We next evaluated the in vivo efficacy of 13d using a streptozotocin (STZ)-induced diabetic mouse model. STZ induces ER stress in β-cells in addition to the increase in reactive oxygen species (ROS) production and DNA alkylation. C57BL/6 mice injected intraperitoneally with low dose STZ (50 mg/kg) once daily for 5 consecutive days develop diabetes; blood glucose levels increased gradually within a week of STZ treatment.
# All procedures involving animals were performed in accordance with the protocol approved by the University of Oklahoma Health Science Center Institutional Animal Care and Use Committee (IACUC). C57BL/6 mice were obtained from The Jackson Laboratory (Bar Harbor, Me.) and maintained on a 12 h light (6:00 AM-6:00 PM)-12 h dark (6:00 PM-6:00 AM) cycle at an ambient temperature of 21° C. Mice were given free access to water and food. All experiments were performed with age-matched male mice. Compounds were dosed during light cycle. For streptozotocin (STZ)-induced diabetic model, ten-week-old C57BL/6 mice were injected intraperitoneally (i.p.) once daily for five days with STZ (dissolved in Na-Citrate Buffer; 50 mg/kg) and either 13d (5 mg/kg body weight; 2 mg/ml in 10% DMSO in saline buffer; n=7 mice) or vehicle (n=6 mice). Injections of vehicle or 13d alone were then continued for 2 more weeks. Every third day, animals were fasted for 5 h and blood was obtained by tail snip. Blood glucose levels were measured using a glucometer (Nova Statstrip Xpress; Data Science International, St. Paul, Minn.). At the end of the treatment period, mice were sacrificed and the pancreases were removed, fixed in formalin, and paraffin-embedded. Tissue blocks were serially sectioned at intervals of 100 μm and 6 sections were stained with an anti-insulin antibody (A0564, 1:500 dilution; Dako), anti-glucagon antibody (G2654, 1:500 dilution; Sigma), and DAPI (0.5 μg/ml). Insulin-positive cells were used to demarcate islets, and the total islet area was measured with an Olympus FV1000 confocal microscopy and quantified with Image-J histogram software.
smiles,measurement,setting,value
"O=C(NCc1ccc(C(F)(F)F)cc1)c1cccc(CN2CCCCC2)c1 [Compound 13d, N-(4-trifluoromethylphenmethyl)-3-(N-piperidinyl)methyl benzamide]",Tm-induced increase in CHOP mRNA level,"CHOP mRNA; Tm 0.1 μg/mL co-treatment, 8 h",almost completely abolished
same,IC50,"CHOP mRNA; Tm, 8 h, read-out: IC50 for inhibition of Tm-induced CHOP expression",37 nM
same,effect on CHOP mRNA level on its own,CHOP mRNA; without Tm,no effect
same,total pancreatic islet β-cell area compared to vehicle-treated mice,"[1]; STZ mice, 5 mg/kg",more than double
same,fasting blood glucose level,"[1]; STZ mice, 5 mg/kg i.p. once daily, after 3 weeks of treatment",314 mg/dL
same,total pancreatic islet β-cell area,"[1]; STZ mice, 5 mg/kg, pancreatic sections at end of treatment",67.4±5.9%
same,average number of α-cells,"[1]; STZ mice, 5 mg/kg, vehicle vs 13d groups",no obvious effect
same,"intraperitoneal glucose tolerance test, blood glucose vs vehicle-treated STZ group","[1]; overnight fasted STZ mice, 5 mg/kg, glucose 2 g/kg i.p.","lower blood glucose levels at 15, and 30 min"

# From US11203582B2, “Benzamide derivatives for inhibiting endoplasmic reticulum (ER) stress” (The Board of Regents of the University of Oklahoma, priority 2017, dated 2021)
